# Assays:
# [1] = test system: BT-20 (expressing wild type KRas); assay: Proliferation Assay (Cell Viability Assay); type: cell-based; details: Homo sapiens; BT-20, Breast (TNBC), KRas WT
# How it was run: (§1)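 Cells plated at 2000–5000/well overnight, then treated 2–4 days at 37 °C, 5% CO2 with compound at 10 μM single dose or serial dilutions for IC50, in 0.3% DMSO and 10% FBS. Viability read by CellTiter 96 Aqueous One (MTS); % proliferation inhibition calculated from raw data.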
# [2] = test system: HPAF-II (expressing KRas G12D mutant); assay: Proliferation Assay (Cell Viability Assay); type: cell-based; details: Homo sapiens, pancreatic
# How it was run: as §1
# active/cleaved caspase 3 = assay: Cell-based caspase activation assay (western blot); parameters: species or system human
# Protocol: (§2) Biological Example 4: Puma Expression and Caspases Activation Assay
# (§3) Protocols for Cell-Based Puma Expression and Caspase Activation Assays
# (§4) Cell lines: All human tumor-derived cancer cell lines were purchased from American Type Culture Collection. Human tumor-derived cancer cell lines Panc-1 (expressing KRas G12D mutant), MiaPaca-2 (expressing KRas G12C mutant), A549 (expressing KRas G12S mutant), and A375 (expressing wild type KRas) were grown in complete DMEM-High Glucose medium and NCI-H1975 (expressing wild type KRas), MM.1R (expressing wild type KRas) and IM.9 (expressing wild type KRas) were grown in RPMI1640 medium. Human tumor-derived cancer cell line BT-549 (expressing wild type KRas) was grown in RPMI1640 medium with 11.8U insulin. All mediums were supplemented with penicillin (100 U/mL), streptomycin (100 μg/mL), and 10% heat-inactivated FBS at 37° C. in a humidified incubator with 5% CO2.
# (§5) Method: Cells were plated at 300,000 to 800,000 cells/well density in a 6-well plate in the presence of 10% FBS. The next day small molecules to be tested were added to the cells in the final concentration of 3 μM in the presence of 0.3% DMSO for 48 hours incubation at 37° C. For IC50 value determination, serial dilutions of compounds were added to cells under the same conditions. Following 48 hours of incubation cells were lysed with lysis buffer containing 1% Triton X-100, EDTA, and Halt™ Protease & Phosphatase Inhibitor Cocktail (Thermo Scientific). Protein concentration was assessed by BCA protein assay (Thermo Scientific). Increase expression of PUMA and active/cleaved forms of caspase 3, caspase 6 and caspase 9 were detected by western blot.
# (§6) Western blot protocol: Equal amounts of protein (15-50 μg) were separated by SDS-PAGE and transferred to nitrocellulose membranes (Invitrogen by Thermo Fisher Scientific). The membrane was stained with Ponceau S Stain (Boston BioProducts) to verify uniform protein loading. Membranes were blocked with 10% milk and expression levels of PUMA was assessed by incubating overnight at 4° C. with the antibody PUMA (D30C10) from Cell Signaling Technology (#12450) and active/cleaved forms of caspase 3, caspase 6 and caspase 9 by incubating overnight at 4° C. with the following antibodies: cleaved caspase-3 (Asp175) (5A1E), cleaved caspase-6 (Asp162) and cleaved caspase-9 (Asp330) (D2D4) (all antibodies from Cell Signaling Technology). Then the membranes were incubated with HRP-conjugated secondary antibody (Jackson Immunoresearch, West Grove, PA). Bands were incubated in Amersham ECL Prime Western Blotting Detection Reagent (GE Healthcare) and visualized using the ChemiDoc MP imaging system (Bio-Rad).
# active/cleaved caspase 6 = assay: Cell-based caspase activation assay (western blot); parameters: species or system human
# Protocol: as §2, §3, §4, §5, §6
# active/cleaved caspase 9 = assay: Cell-based caspase activation assay (western blot); parameters: species or system human
# Protocol: as §2, §3, §4, §5, §6
# PUMA expression = assay: Cell-based Puma expression assay (western blot); parameters: species or system human
# Protocol: as §2, §3, §4, §5, §6
smiles,measurement,setting,value
"COc1ccnc(Nc2nc(-c3nccn3C)nn3cc(-c4ccn(C(C)C)n4)c(C)c23)c1 [Compound 58, 6-(1-Isopropyl-1H-pyrazol-3-yl)-N-(4-methoxypyridin-2-yl)-5-methyl-2-(1-methyl-1H-imidazol-2-yl)pyrrolo[2,1-f][1,2,4]triazin-4-amine]",IC50,[1],< 150 nM
same,IC50,[2],< 150 nM
same,Caspase 3 activation,"active/cleaved caspase 3; A549, after 48 hours",yes
same,Caspase 3 activation,"active/cleaved caspase 3; BT-549, after 48 hours",yes
same,Caspase 3 activation,"active/cleaved caspase 3; MiaPaca2, after 48 hours",yes
same,Caspase 6 activation,"active/cleaved caspase 6; A549, after 48 hours",yes
same,Caspase 6 activation,"active/cleaved caspase 6; BT-549, after 48 hours",yes
same,Caspase 6 activation,"active/cleaved caspase 6; MiaPaca2, after 48 hours",yes
same,Caspase 9 activation,"active/cleaved caspase 9; A549, after 48 hours",yes
same,Caspase 9 activation,"active/cleaved caspase 9; BT-549, after 48 hours",yes
same,Caspase 9 activation,"active/cleaved caspase 9; MiaPaca2, after 48 hours",yes
same,Increased PUMA expression,"PUMA expression; A549, after 48 hours",yes
same,Increased PUMA expression,"PUMA expression; BT-549, after 48 hours",yes
same,Increased PUMA expression,"PUMA expression; MiaPaca2, after 48 hours",yes

# — patent US12459951B2, “Compounds that interact with RAS superfamily proteins for treatment of cancers, inflammatory diseases, rasopathies, and fibrotic disease” (SHY Therapeutics, LLC, priority 2022, dated 2025)
